The values that follow come from article PMC8657792, “Interaction Profiles of Central Nervous System Active Drugs at Human Organic Cation Transporters 1–3 and Human Plasma Membrane Monoamine Transporter” (International Journal of Molecular Sciences, 2021).

Where two headings read alike, the source gives them in different places. Some results are limits rather than exact numbers.

The IC50 is the concentration needed to halve the response being measured. For orientation: Ki means the dissociation constant of the complex between target and ligand, obtained from inhibition or displacement.

Experiment [1] concerns the target T1, hOCT3 (Homo sapiens, UniProt O75751).
T1 construct: expressed in transfected cells
T1 sequence (O75751 1-556): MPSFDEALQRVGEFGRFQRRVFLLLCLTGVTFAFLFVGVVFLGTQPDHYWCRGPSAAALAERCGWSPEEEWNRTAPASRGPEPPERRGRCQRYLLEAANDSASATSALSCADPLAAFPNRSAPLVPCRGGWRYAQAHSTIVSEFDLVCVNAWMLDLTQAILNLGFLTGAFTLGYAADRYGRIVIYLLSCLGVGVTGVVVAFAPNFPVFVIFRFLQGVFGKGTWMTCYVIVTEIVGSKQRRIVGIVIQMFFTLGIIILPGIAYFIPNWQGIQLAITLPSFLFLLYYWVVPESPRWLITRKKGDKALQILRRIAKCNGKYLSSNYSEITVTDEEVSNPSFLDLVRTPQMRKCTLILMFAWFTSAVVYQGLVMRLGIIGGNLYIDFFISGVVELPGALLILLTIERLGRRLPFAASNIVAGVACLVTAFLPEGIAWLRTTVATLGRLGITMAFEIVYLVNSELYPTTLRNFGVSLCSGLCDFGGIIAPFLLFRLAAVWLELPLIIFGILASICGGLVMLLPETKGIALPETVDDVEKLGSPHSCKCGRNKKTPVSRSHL
The note with it: Table S1, supplementary reference list, cited from earlier work; for Ki: read-out: IC50 literature hOCT3 (Ki), Ki values.

Experiment [2] addresses T2, hPMAT (Homo sapiens, UniProt Q7RTT9).
T2 construct: expressed in transfected cells
T2 sequence (Q7RTT9 1-530): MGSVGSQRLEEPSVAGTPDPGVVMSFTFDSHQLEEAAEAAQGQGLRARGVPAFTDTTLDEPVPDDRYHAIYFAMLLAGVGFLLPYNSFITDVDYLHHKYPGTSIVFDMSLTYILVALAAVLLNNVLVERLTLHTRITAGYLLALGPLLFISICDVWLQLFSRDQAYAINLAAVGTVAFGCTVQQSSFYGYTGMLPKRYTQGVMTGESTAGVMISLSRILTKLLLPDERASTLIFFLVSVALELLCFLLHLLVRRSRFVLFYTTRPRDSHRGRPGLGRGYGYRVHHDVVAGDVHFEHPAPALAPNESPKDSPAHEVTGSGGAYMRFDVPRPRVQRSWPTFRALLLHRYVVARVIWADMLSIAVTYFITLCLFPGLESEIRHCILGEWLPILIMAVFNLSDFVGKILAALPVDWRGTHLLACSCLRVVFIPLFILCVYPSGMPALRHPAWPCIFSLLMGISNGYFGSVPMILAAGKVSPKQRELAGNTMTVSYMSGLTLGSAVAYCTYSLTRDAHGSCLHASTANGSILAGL
The note with it: Table S1, supplementary reference list, read-out: IC50 literature hPMAT, cited from earlier work.

Experiment [3] addresses T3, hOCT2 (Homo sapiens, UniProt O15244).
T3 construct: expressed in transfected cells
T3 sequence (O15244 1-555): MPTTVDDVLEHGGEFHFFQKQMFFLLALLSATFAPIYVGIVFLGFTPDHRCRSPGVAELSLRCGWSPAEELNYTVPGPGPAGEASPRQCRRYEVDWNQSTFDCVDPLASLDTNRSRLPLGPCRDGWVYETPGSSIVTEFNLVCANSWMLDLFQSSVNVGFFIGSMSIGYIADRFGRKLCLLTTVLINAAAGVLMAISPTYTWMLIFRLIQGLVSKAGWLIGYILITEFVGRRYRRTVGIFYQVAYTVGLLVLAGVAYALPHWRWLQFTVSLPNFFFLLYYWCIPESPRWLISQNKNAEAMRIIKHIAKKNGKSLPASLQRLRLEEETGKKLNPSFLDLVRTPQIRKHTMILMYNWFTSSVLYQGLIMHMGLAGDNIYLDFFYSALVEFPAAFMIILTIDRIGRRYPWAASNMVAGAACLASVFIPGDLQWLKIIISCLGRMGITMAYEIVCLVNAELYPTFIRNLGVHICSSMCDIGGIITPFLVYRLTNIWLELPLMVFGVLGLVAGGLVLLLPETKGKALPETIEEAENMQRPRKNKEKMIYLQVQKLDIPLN
The note with it: Table S1, supplementary reference list, cited from earlier work; for IC50: read-out: IC50 literature hOCT2; for Ki: read-out: IC50 literature hOCT2 (Ki), Ki values.

In experiment [4] the target is T4, hOCT1 (Homo sapiens, UniProt O15245).
T4 construct: expressed in transfected cells
T4 sequence (O15245 1-554): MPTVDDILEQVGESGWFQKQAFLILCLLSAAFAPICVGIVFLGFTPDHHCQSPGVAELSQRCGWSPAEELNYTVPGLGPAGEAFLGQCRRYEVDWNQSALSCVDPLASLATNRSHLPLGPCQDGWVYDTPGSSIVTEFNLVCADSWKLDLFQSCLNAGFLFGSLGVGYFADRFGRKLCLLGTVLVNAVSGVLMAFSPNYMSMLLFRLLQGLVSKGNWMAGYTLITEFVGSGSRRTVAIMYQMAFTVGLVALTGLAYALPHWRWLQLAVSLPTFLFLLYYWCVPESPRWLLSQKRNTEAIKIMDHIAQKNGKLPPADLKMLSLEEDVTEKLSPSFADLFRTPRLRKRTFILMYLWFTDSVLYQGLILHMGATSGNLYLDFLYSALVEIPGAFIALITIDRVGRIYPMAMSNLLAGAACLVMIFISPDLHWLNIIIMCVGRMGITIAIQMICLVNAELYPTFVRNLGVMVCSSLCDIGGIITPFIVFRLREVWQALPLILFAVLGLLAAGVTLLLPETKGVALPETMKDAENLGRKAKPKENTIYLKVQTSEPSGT
The note with it: Table S1, supplementary reference list, cited from earlier work; for IC50: read-out: IC50 literature hOCT1; for Ki: read-out: IC50 literature hOCT1 (Ki), Ki values.

Another experiment deals with mOCT3. Further details: method as in earlier work. As to conditions: Table S1, hOCT3 column, marked (mOCT3); supplementary reference list; read-out: IC50 literature (mOCT3); cited from earlier work.
Experiment [5] deals with T2, hPMAT. The experiment can be described thus: [3H]MPP+ uptake inhibition assay, HEK293 cells stably expressing hPMAT. Type of experiment: cell-based.
Method: (§1) HEK293 cells were transfected with a plasmid, encoding the transporter of interest and an N-terminal YFP-tag, carried out using jetPRIME ^© (Polyplus Transfection; (VWR International GmbH, Vienna, Austria)) reagent (for a 10 cm dish with 1–2 × 10^6 cells in 10 mL serum containing medium at 60–80% confluency: 500 μ L jetPRIME ^© buffer, 10 μ g DNA and 20 μ L jetPRIME ^© reagent) and selection pressure maintained for two weeks [2, 54, 55]. Subsequently, 500,000 cells were FACS-sorted (fluorescence-activated cell sorting) according to expression level to establish cell lines stably expressing the protein of interest. […] For uptake inhibition assays, cells were cultured at a subconfluent (80–90% density) state in high-glucose Dulbecco’s Modified Eagle Medium (DMEM ), enriched with 10% heat-inactivated Fetal Bovine Serum (FBS) and penicillin/streptomycin (PS; 100 U × 100 mL ^−1 , each). Selection pressure was maintained by the addition of geneticin (50 mg × mL ^−1 ) at 37 ^∘ C and 5% CO 2 in a humidified incubator. At a density of 60,000 cells per well, HEK293 cells expressing the respective transporter were seeded onto poly-D-lysine-coated wells 24 h prior to uptake inhibition experiments in a final volume of 200 μ L per well.
(§2) Prior to the addition of the respective compounds, DMEM was removed from all wells and replaced with 200 μ L of Krebs-HEPES-buffer (KHB; 10 mM HEPES, 120 mM NaCl, 3 mM KCl, 2 mM CaCl 2 , 2 mM MgSO 4 and 20 mM D-glucose, pH adjusted to 7.3) at room temperature. Cells were exposed to a pre-incubation solution containing the compound of interest in the respective concentration (dissolved in Krebs-HEPES-buffer) for 10 min with a total volume of 50 μ L, which was then replaced with a 50 μ L uptake solution containing 0.05 μ M of tritiated 1-methyl-4-phenylpyridinium ([ ^3 H]MPP ^+ ) as substrate, and the compound of interest in respective concentrations, for 10 minutes each. Finally, uptake was terminated by washing with 200 μ L of ice-cold (4 ^∘ C) KHB, after which cells were lysed with 200 μ L of 1% sodium dodecyl sulphate (SDS). After transferring the solution of each well into 6 mL counting vials containing 2 mL of scintillation cocktail, the vials were measured with a beta-scintillation counter for quantification of the uptake of tritiated substrate. […] To obtain specific data, non-specific uptake was assessed in the presence of 100 μ M D22 and subtracted from the total data. The 100% values were defined as uptake in the absence of a tested substance, defining maximal uptake capacity. Inhibitions of the compound of interest were described as a percentage of the maximal uptake capacity.
(§3) Half-maximal inhibitory concentration ( IC50 ) values of each substance were calculated and plotted using GraphPad Prism 8.4.3 (GraphPad Software Inc., San Diego, CA, USA). IC50 was determined by non-linear regression, solving the equation Y=Bottom+(Top−Bottom)/(1+10^X−LogEC50) . […] All data stem from a minimum of three separate experiments (n≥ 3) executed in triplicates and are shown as mean ± SD.
The target of experiment [6] is T4, hOCT1. The experiment can be described thus: [3H]MPP+ uptake inhibition assay, HEK293 cells stably expressing hOCT1. It counts as cell-based.
Method: as §1, §2, §3
For experiment [7], the target named is T1, hOCT3. The experiment can be described thus: [3H]MPP+ uptake inhibition assay, HEK293 cells stably expressing hOCT3. It counts as cell-based.
Method: as §1, §2, §3
Experiment [8] addresses T3, hOCT2. In words: [3H]MPP+ uptake inhibition assay, HEK293 cells stably expressing hOCT2. It counts as cell-based.
Method: as §1, §2, §3

As for `CCCC(C(=O)c1ccccc1)N1CCCC1` (stereo not drawn) [α-PVP], the IC50 was 1630 µM at hOCT3 [1] (ref 13, read-out: IC50 literature hOCT3); > 1000 µM at hOCT3 [1] (ref 14, read-out: IC50 literature hOCT3); 13.4 µM at hPMAT [2] (ref 13); 5.62 µM on hOCT2 [3] (ref 13); 17.5 ± 2.5 µM on hOCT2 [3] (ref 14); 1.31 µM on hOCT1 [4] (ref 13).

For `CN1C(=O)CN=C(c2ccccc2)c2cc(Cl)ccc21` [Diazepam, diazepam], in the experiment with mOCT3, the IC50 was 40 µM.

In the case of `CN(C)CCCC1(c2ccc(F)cc2)OCc2cc(C#N)ccc21` (stereo not drawn) [Citalopram], the IC50 is 117 µM at hPMAT [2] (ref 4), 115 µM at hOCT2 [3] (ref 1) and 13.2 µM at hOCT1 [4] (ref 1).

For `CC(NC(C)(C)C)C(=O)c1cccc(Cl)c1` (stereo not drawn) [Bupropion, bupropion], the IC50 is 738 µM at hOCT3 [1] (ref 1, read-out: IC50 literature hOCT3); 97 µM at hPMAT [5] (HEK293 stably expressing hPMAT, 0.05 μM [3H]MPP+, 10 min pre-incubation, 10 min uptake, brackets in Table S1 = 95%-CI, n.s. = non-significant, read-out: IC50 hPMAT (inhibitory potency, [3H]MPP+ uptake)); 5.36 µM on hOCT1 [6] (HEK293 stably expressing hOCT1, 0.05 μM [3H]MPP+, 10 min pre-incubation, 10 min uptake, brackets in Table S1 = 95%-CI, n.s. = non-significant, read-out: IC50 hOCT1 (inhibitory potency, [3H]MPP+ uptake)); 186 µM on hOCT3 [7] (HEK293 stably expressing hOCT3, 0.05 μM [3H]MPP+, 10 min pre-incubation, 10 min uptake, brackets in Table S1 = 95%-CI, n.s. = non-significant, read-out: IC50 hOCT3 (inhibitory potency, [3H]MPP+ uptake)); 115 µM on hPMAT [2] (ref 3); 28.6 µM on hOCT2 [3] (ref 1). For the same compound, the IC50 at hOCT2 [3] (ref 2) was 32.2 µM; on hOCT1 [4] (ref 1), 161 µM; at hOCT2 [8] (HEK293 stably expressing hOCT2, 0.05 μM [3H]MPP+, 10 min pre-incubation, 10 min uptake, brackets in Table S1 = 95%-CI, n.s. = non-significant, read-out: IC50 hOCT2 (inhibitory potency, [3H]MPP+ uptake)) it was 32.9 µM.

As for `COC(=O)[C@H]1[C@@H](OC(=O)c2ccccc2)C[C@@H]2CC[C@H]1N2C` [Cocaine, cocaine], on hPMAT [5] (HEK293 stably expressing hPMAT, 0.05 μM [3H]MPP+, 10 min pre-incubation, 10 min uptake, brackets in Table S1 = 95%-CI, n.s. = non-significant), the “IC50 hPMAT (inhibitory potency, [3H]MPP+ uptake)” value is recorded as “n.s”. For the same compound, the half-maximal inhibitory concentration (IC50) on hOCT1 [6] was 6.66 µM; against hOCT2 [8], 27.8 µM. Also, on hOCT3 [7] (HEK293 stably expressing hOCT3, 0.05 μM [3H]MPP+, 10 min pre-incubation, 10 min uptake, brackets in Table S1 = 95%-CI, n.s. = non-significant), the “IC50 hOCT3 (inhibitory potency, [3H]MPP+ uptake)” value was “n.s”. The inhibition constant (Ki) at hOCT2 [3] was 113 ± 21 µM; at hOCT1 [4] it was 85 ± 22 µM.

In the case of `C[C@H](N)Cc1ccccc1` [d-Amphetamine, d-amphetamine], the IC50 at hOCT3 [1] (marked (5-HT), read-out: IC50 literature hOCT3 (5-HT)) is 24.1 ± 70 µM; at hOCT3 [1] (marked (DA), read-out: IC50 literature hOCT3 (DA)) it was 41.5 ± 7.5 µM; on hOCT3 [1] (read-out: IC50 literature hOCT3, ref 8), 363 ± 56.4 µM; on hOCT3 [1] (read-out: IC50 literature hOCT3, ref 9), 42 ± 7 µM; against hPMAT [5], 71.8 µM; on hOCT1 [6], 8.39 µM. Moreover, the IC50 against hOCT3 [7] is 337 µM; at hOCT2 [3] it was 20.3 ± 16.9 µM; on hOCT1 [4], 96.7 ± 37 µM; against hOCT2 [8], 2.21 µM. Besides, the inhibition constant Ki at hOCT3 [1] is 460 ± 140 µM; at hOCT2 [3], 10.5 ± 2.6 µM; at hOCT1 [4], 202 ± 68 µM.

For `CNC(C)Cc1ccc2c(c1)OCO2` (stereo not drawn) [MDMA, 3,4-methylenedioxymethamphetamine], the inhibitory constant (Ki) on hOCT3 [1] is 73.6 ± 50.3 µM; at hOCT2 [3], 1.63 ± 0.62 µM; on hOCT1 [4] it was 24.2 ± 9.2 µM. The half-inhibitory concentration (IC50) against hPMAT [5] is 7.77 µM; against hOCT1 [6], 1.14 µM; against hOCT3 [7] it was 154 µM; against hOCT2 [8], 2.71 µM. On hOCT3 [7] ([3H]MPP+ uptake, HEK293 hOCT3), the “Effect on substrate uptake by hOCT3 (in words)” value is “not inhibiting uptake”.

With `CNC1(c2ccccc2Cl)CCCCC1=O` (stereo not drawn) [Ketamine, ketamine], the “IC50 literature hOCT3 (Km)” value at hOCT3 [1] (Km) was 52.9 ± 15.0 µM. For the same compound, the figures for the Ki at hOCT3 [1], on hOCT2 [3] and on hOCT1 [4] were 226 ± 65 µM, 22.7 ± 6.3 µM and 115 ± 43.7 µM, respectively. Further, the 50% inhibitory concentration (IC50) was 440 µM at hOCT3 [1] (read-out: IC50 literature hOCT3, ASP+ as substrate); 135 µM on hPMAT [5]; 23.5 µM against hOCT1 [6]; 1030 µM against hOCT3 [7]; 12.5 µM against hOCT2 [8]. The “IC50 literature hOCT2 (Km)” value on hOCT2 [3] (Km) is on record as 33.5 ± 20.3 µM. For the same compound, the “IC50 literature hOCT1 (Km)” value on hOCT1 [4] (Km) was 73.9 ± 15.2 µM.
